# Reference: patent US6737383B1, “Herbicidal oxadiazolidines” (priority 1999, dated 2004)
# What was measured:
# lambsquarters = assay: Test C postemergence lambsquarters; assay type: in vivo, Chenopodium album; settings: 0 to 100 scale, 0 no effect, 100 complete control
# Protocol: (§1) Compounds evaluated in this test were formulated in a non-phytotoxic solvent mixture which included a surfactant and applied to plants that were grown for various periods of time before treatment (postemergence application). A mixture of sandy loam soil and greenhouse potting mix in a 60:40 ratio was used for the postemergence test.
# Plantings of these crops and weed species were adjusted to produce plants of appropriate size for the postemergence test. All plant species were grown using normal greenhouse practices. Crop and weed species include arrowleaf sida (Sida rhombifolia), barnyardgrass (Echinochloa crus-galli), cocklebur (Xanthium strumarium), common ragweed (Ambrosia elatior), corn (Zea mays), cotton (Gossypium hirsutum), eastern black nightshade (Solanum ptycanthum), fall panicum (Panicum dichotomiflorum), field bindweed (Convolvulus arvensis), giant foxtail (Setaria faberii), hairy beggarticks (Bidens pilosa), ivyleaf morningglory (Ipomoea hederacea), johnsongrass (Sorghum halepense), ladysthumb smartweed (Polygonum persicaria), lambsquarters (Chenopodium album), large crabgrass (Digitaria sanguinalis), purple nutsedge (Cyperus rotundus), redroot pigweed (Amaranthus retroflexus), soybean (Glycine max), surinam grass (Brachiaria decumbens), velvetleaf (Abutilon theophrasti) and wild poinsettia (Euphorbia heterophylla).
# Treated plants and untreated controls were maintained in a greenhouse for approximately 14, to 21 days, after which all treated plants were compared to untreated controls and visually evaluated. Plant response ratings, summarized in Table C, were based upon a 0 to 100 scale where 0 was no effect and 100 was complete control. A dash response (−) means no test result.
# sourgrass = assay: Test D sourgrass; assay type: in vivo, Trichachne insularis; settings: Preemergence, 0 to 100 scale, 0 no injury, 100 complete control
# Summary of the method: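 Seeds were sown in greenhouse pots, one species per pot or compartment. Compounds were in a non-phytotoxic solvent mixture with surfactant; preemergence applications went on the sandy loam surface within one day of planting. Injury was rated visually after 14 to 21 days, 0 (none) to 100 (complete control).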
# littleseed canarygrass = assay: Test E littleseed canarygrass; assay type: in vivo, Phalaris minor; settings: Postemergence
# Protocol: as §1, with “in the 1- to 4-leaf stage” for “grown for various periods of time before treatment”
# (§2) Plantings of these crops and weed species were adjusted to produce plants of appropriate size for the postemergence test. All plant species were grown using normal greenhouse practices. Crop and weed species include annual bluegrass (Poa annua), blackgrass (Alopecurus myosuroides), black nightshade (Solanum nigra), chickweed (Stellaria media), common poppy (Papaver rhoeas), deadnettle (Lamium amplexicaule), downy brome (Bromus tectorum), field violet (Viola arvensis), galium (Galium aparine), green foxtail (Setaria viridis), Italian ryegrass (Lolium multiflorum), jointed goatgrass (Aegilops cylindrica), kochia (Kochia scoparia), lambsquarters (Chenopodium album), littleseed canarygrass (Phalaris minor), rape (Brassica napus), redroot pigweed (Amaranthus retroflexus), Russian thistle (Salsola kali), scentless chamomile (Matricaria inodora), spring barley (Hordeum vulgare), sugar beet (Beta vulgaris), sunflower (Helianthus annuus), ivyleaf speedwell (Veronica hederaefolia), spring wheat (Triticum aestivum), winter wheat (Triticum aestivum), wild buckwheat (Polygonum convolvulus), wild mustard (Sinapis arvensis), wild oat (Avena fatua), windgrass (Apera spica-venti) and winter barley (Hordeum vulgare).
# (§3) Treated plants and untreated controls were maintained in a greenhouse for approximately 21 to 28 days, after which all treated plants were compared to untreated controls and visually evaluated. […] A dash response (-) means no test result.
# annual bluegrass = assay: Test E annual bluegrass; assay type: in vivo, Poa annua; settings: Postemergence
# Protocol: as §1, with “in the 1- to 4-leaf stage” for “grown for various periods of time before treatment”
# as §2, §3
# spring barley [1] = assay: Test E spring barley; assay type: in vivo, Hordeum vulgare; settings: Postemergence
# Protocol: as §1, with “in the 1- to 4-leaf stage” for “grown for various periods of time before treatment”
# as §2, §3
# sunflower = assay: Test E sunflower; assay type: in vivo, Helianthus annuus; settings: Postemergence
# Protocol: as §2, with “Plantings of these crops and weed species were adjusted to produce plants of appropriate size for the postemergence test.” left out
# as §3
# field violet = assay: Test E field violet; assay type: in vivo, Viola arvensis; settings: Postemergence
# Protocol: as §1, with “in the 1- to 4-leaf stage” for “grown for various periods of time before treatment”
# as §2, §3
# Italian ryegrass = assay: Test E Italian ryegrass; assay type: in vivo, Lolium multiflorum; settings: Postemergence
# Protocol: as §1, with “in the 1- to 4-leaf stage” for “grown for various periods of time before treatment”
# as §2, §3
# kochia = assay: Test E kochia; assay type: in vivo, Kochia scoparia; settings: Postemergence
# Protocol: as §1, with “in the 1- to 4-leaf stage” for “grown for various periods of time before treatment”
# as §2, §3
# green foxtail = assay: Test E green foxtail; assay type: in vivo, Setaria viridis; settings: Postemergence
# Summary of the method: (§4)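 For postemergence, plants at the 1- to 4-leaf stage, in a 60:40 mix of sandy loam and potting mix, treated with compound formulated in a surfactant-containing non-phytotoxic solvent. Visual assessment versus untreated controls followed roughly 21–28 days in the greenhouse.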
# sugar beet = assay: Test E sugar beet; assay type: in vivo, Beta vulgaris; settings: Postemergence
# Protocol: as §1, with “in the 1- to 4-leaf stage” for “grown for various periods of time before treatment”
# as §2, §3
# galium = assay: Test E galium; assay type: in vivo, Galium aparine; settings: Postemergence
# Summary of the method: as §4
# spring barley [2] = assay: Test E spring barley; assay type: in vivo, Hordeum vulgare; settings: Preemergence
# [3] = Rate 250 g/ha, 0 to 100 scale (0 no effect, 100 complete control)
# [4] = Rate 500 g/ha, 0 to 100 scale, 0 no effect, 100 complete control
# [5] = Rate 125 g/ha, 0 to 100 scale (0 no effect, 100 complete control)
# [6] = Rate 500 g/ha, 0 to 100 scale where 0 is no effect and 100 is complete control
# [7] = Rate 250 g/ha, 0 to 100 scale where 0 is no effect and 100 is complete control
smiles,measurement,setting,value
CCn1c(=O)on(C(=O)N(c2ccccc2)C(C)C)c1=O [Compound 117],"Plant response rating, Lambsquarters",lambsquarters; Rate 140 g/ha,0
same,"Plant response rating, Lambsquarters",lambsquarters; Rate 280 g/ha,0
same,"Plant response rating, Lambsquarters",lambsquarters; Rate 560 g/ha,0
same,"Plant response rating, Lambsquarters",lambsquarters; Rate 1120 g/ha,0
Cc1cccc(C)c1-n1c(=O)on(C(=O)N(c2ccc(F)cc2)C(C)C)c1=O [Compound 18],"Plant response rating, Sourgrass",sourgrass; Rate 64 g/ha,100
CC(C)N(C(=O)n1oc(=O)n(C(C)C)c1=O)c1ccc(Cl)cc1 [Compound 114],"Plant response rating, LS canarygrass","littleseed canarygrass; Rate 125 g/ha, 0 to 100 scale",0
same,"Plant response rating, LS canarygrass",littleseed canarygrass; [3],30
same,"Plant response rating, LS canarygrass",littleseed canarygrass; [4],60
same,"Plant response rating, Annual bluegras","annual bluegrass; Rate 125 g/ha, 0 to 100 scale",0
same,"Plant response rating, Annual bluegras",annual bluegrass; [3],30
same,"Plant response rating, Annual bluegras",annual bluegrass; [4],60
same,"Plant response rating, Spring Barley","spring barley [1]; Rate 125 g/ha, 0 to 100 scale",20
same,"Plant response rating, Spring Barley",spring barley [1]; [3],30
same,"Plant response rating, Spring Barley",spring barley [1]; [4],35
same,"Plant response rating, Sunflower","sunflower; Rate 125 g/ha, 0 to 100 scale",10
same,"Plant response rating, Sunflower",sunflower; [3],10
same,"Plant response rating, Sunflower",sunflower; [4],15
same,"Plant response rating, Field violet","field violet; Rate 125 g/ha, 0 to 100 scale",0
same,"Plant response rating, Field violet",field violet; [3],0
same,"Plant response rating, Field violet",field violet; [4],15
same,"Plant response rating, I. Ryegrass","Italian ryegrass; Rate 125 g/ha, 0 to 100 scale",10
same,"Plant response rating, I. Ryegrass",Italian ryegrass; [3],20
same,"Plant response rating, I. Ryegrass",Italian ryegrass; [4],20
same,"Plant response rating, Kochia","kochia; Rate 125 g/ha, 0 to 100 scale",20
same,"Plant response rating, Kochia",kochia; [3],30
same,"Plant response rating, Kochia",kochia; [4],30
same,"Plant response rating, Green foxtail","green foxtail; Rate 125 g/ha, 0 to 100 scale",20
same,"Plant response rating, Green foxtail",green foxtail; [3],50
same,"Plant response rating, Green foxtail",green foxtail; [4],90
same,"Plant response rating, Sugar beet","sugar beet; Rate 125 g/ha, 0 to 100 scale",50
same,"Plant response rating, Sugar beet",sugar beet; [3],55
same,"Plant response rating, Sugar beet",sugar beet; [4],50
same,"Plant response rating, Galium","galium; Rate 125 g/ha, 0 to 100 scale",10
same,"Plant response rating, Galium",galium; [3],50
same,"Plant response rating, Galium",galium; [4],85
same,"Plant response rating, Spring Barley",spring barley [2]; [5],0
same,"Plant response rating, Spring Barley","spring barley [2]; Rate 250 g/ha, 0 to 100 scale",0
same,"Plant response rating, Spring Barley",spring barley [2]; [6],20
CC(C)N(C(=O)n1oc(=O)n(C(C)C)c1=O)c1ccc(F)cc1 [Compound 131],"Plant response rating, LS canarygrass","littleseed canarygrass; Rate 62 g/ha, 0 to 100 scale",50
same,"Plant response rating, LS canarygrass","littleseed canarygrass; Rate 125 g/ha, 0 to 100 scale",0
same,"Plant response rating, LS canarygrass",littleseed canarygrass; [4],50
same,LS canarygrass plant response rating,littleseed canarygrass; [7],20
same,"Plant response rating, Lambsquarters",lambsquarters; Rate 140 g/ha,0
same,"Plant response rating, Lambsquarters",lambsquarters; Rate 280 g/ha,0
same,"Plant response rating, Lambsquarters",lambsquarters; Rate 1120 g/ha,0
same,"Plant response rating, Annual bluegras","annual bluegrass; Rate 62 g/ha, 0 to 100 scale",55
same,"Plant response rating, Annual bluegras","annual bluegrass; Rate 125 g/ha, 0 to 100 scale",40
same,"Plant response rating, Annual bluegras",annual bluegrass; [4],70
same,Annual bluegras plant response rating,annual bluegrass; [7],40
same,"Plant response rating, Spring Barley","spring barley [1]; Rate 62 g/ha, 0 to 100 scale",5
same,"Plant response rating, Spring Barley","spring barley [1]; Rate 125 g/ha, 0 to 100 scale",0
same,"Plant response rating, Spring Barley",spring barley [1]; [4],20
same,Spring Barley plant response rating,spring barley [1]; [7],0
same,"Plant response rating, Sunflower","sunflower; Rate 62 g/ha, 0 to 100 scale",10
same,"Plant response rating, Sunflower","sunflower; Rate 125 g/ha, 0 to 100 scale",0
same,"Plant response rating, Sunflower",sunflower; [4],0
same,Sunflower plant response rating,sunflower; [7],0
same,"Plant response rating, Field violet","field violet; Rate 62 g/ha, 0 to 100 scale",60
same,"Plant response rating, Field violet","field violet; Rate 125 g/ha, 0 to 100 scale",0
same,"Plant response rating, Field violet",field violet; [4],0
same,Field violet plant response rating,field violet; [7],0
same,"Plant response rating, Sourgrass",sourgrass; Rate 16 g/ha,90
same,"Plant response rating, I. Ryegrass","Italian ryegrass; Rate 62 g/ha, 0 to 100 scale",50
same,"Plant response rating, I. Ryegrass","Italian ryegrass; Rate 125 g/ha, 0 to 100 scale",0
same,"Plant response rating, I. Ryegrass",Italian ryegrass; [4],40
same,I. Ryegrass plant response rating,Italian ryegrass; [7],30
same,"Plant response rating, Kochia","kochia; Rate 62 g/ha, 0 to 100 scale",45
same,"Plant response rating, Kochia","kochia; Rate 125 g/ha, 0 to 100 scale",0
same,"Plant response rating, Kochia",kochia; [4],0
same,Kochia plant response rating,kochia; [7],0
same,"Plant response rating, Green foxtail","green foxtail; Rate 62 g/ha, 0 to 100 scale",55
same,"Plant response rating, Green foxtail","green foxtail; Rate 125 g/ha, 0 to 100 scale",70
same,"Plant response rating, Green foxtail",green foxtail; [4],75
same,Green foxtail plant response rating,green foxtail; [7],50
same,"Plant response rating, Sugar beet","sugar beet; Rate 62 g/ha, 0 to 100 scale",0
same,"Plant response rating, Sugar beet","sugar beet; Rate 125 g/ha, 0 to 100 scale",0
same,"Plant response rating, Sugar beet",sugar beet; [4],0
same,Sugar beet plant response rating,sugar beet; [7],0
same,"Plant response rating, Galium","galium; Rate 62 g/ha, 0 to 100 scale",50
same,"Plant response rating, Galium","galium; Rate 125 g/ha, 0 to 100 scale",10
same,"Plant response rating, Galium",galium; [4],50
same,Galium plant response rating,galium; [7],0
same,"Plant response rating, Spring Barley",spring barley [2]; [5],20
same,Spring Barley plant response rating (0 to 100 scale),spring barley [2]; Rate 250 g/ha,70
same,"Plant response rating, Spring Barley",spring barley [2]; [6],85
